Results on 35 compounds are retold here after US9957249B2, “Saturated nitrogen and N-acylated heterocycles potentiating the activity of an active antibiotic against Mycobacteria” (Universite de Droit et de la Sante de Lille 2, priority 2012, dated 2018).

pEC50: −log10 of the molar value. A value given as a limit tells only on which side of the number the result lay.

In data set [1] the test system is M. tuberculosis. As to the kind of experiment: Potentiation of ethionamide cell test (High Content Screening). The data set is classed as cell-based. Particulars: ligand concentration necessary to potentiate ten times the activity of ethionamide, constant ethionamide 0.1 μg/mL (1/10 of its CMI99), 50% inhibition of bacterial growth. How it is done: Potentiation of Ethionamide Cell Test
The test used made it possible to ascertain that these compounds were capable of potentiating the bactericide activity of ethionamide on M. tuberculosis alone. This test was a “High Content Screening” (HCS) or dense content screening test. HCS tests were performed on cell cultures that enable certain phenotypic features of a microorganism (e.g. a bacterium) in a given environment to be studied. The phenotypic changes observed can range from the increase (or decrease) of the production of certain marked proteins to the modification of the morphology of the microorganism under consideration. The method is described in the following publication: “Ethionamide Boosters: Synthesis, Biological Activity, and Structure-Activity Relationships of a Series of 1,2,4-Oxadiazole EthR Inhibitors”, M. Flipo et al., Journal of Medicinal Chemistry, 2011, 54(8), 2994-3010.
This test aims to determine the ligand concentration necessary to potentiate ten times the activity of ethionamide (ETH).
To measure the ligand concentration necessary for potentiating ten times the activity of ETH, a constant concentration of ethionamide (0.1 μg/mL corresponding to 1/10 of its CMI99) was chosen. By varying the ligand concentration, the concentration necessary to inhibit 50% of the bacterial growth, i.e. the concentration necessary to potentiate ten times the activity of ethionamide, was determined. This concentration was denoted EC50.

The nature of data set [2]: Measurement of the solubility. The format is physicochemical. Particulars: aqueous buffer, kinetic from dmso stock; PBS at pH 7.4, 24 h at RT, LC-MS, ratio of mass signals PBS/MeOH. How it is done: Measurement of the Solubility
40 μL of a solution at 10 mM in DMSO of the sample was added to 1.96 mL MeOH or PBS at pH 7.4. The samples were then agitated during 24 h at RT, centrifuged during 5 min and then filtrated on filters of 0.45 μm size. 20 μL of each solution were then added to 180 μL MeOH and then analyzed by LC-MS. The solubility was determined as ratio of the surfaces of the mass signals PBS/MeOH.

Usually pEC50 stands for the negative decadic logarithm of the EC50, by convention in mol/L. On to `O=C(CCC(F)(F)F)N1CCC(c2ccccc2Cl)CC1` [BDM_70534], for which, in data set [1] (Table III), the pEC50 was 6.96. Still for that read-out and setting: under `Cc1cccc(C2CCN(C(=O)CCC(F)(F)F)CC2)c1` [BDM_70664] stands 9.00.

Turning to `CC(C)CCC(=O)N1CCN(c2ccccc2)CC1` [BDM_44810], the pEC50 in data set [1] (Table II) and in data set [1] (Table III) was 7.22 throughout.

On to `O=C(CCC(F)(F)F)N1CCC(c2c(F)cc(F)cc2F)CC1` [BDM_71148], for which, in data set [1] (Table III), the negative-log EC50 (pEC50) is 9.00.

Take `Cc1ccccc1C1CCN(C(=O)CCC(F)(F)F)CC1` [BDM_70665]: in data set [1] (Table III), the negative-log EC50 (pEC50) was 7.46. On the same count and under the same terms, under `O=C(CCC(F)(F)F)N1CCC(c2ccc(C(F)(F)F)cc2)CC1` [BDM_70667] stands 6.52; under `O=C(CCC(F)(F)F)N1CCC(c2ccccc2F)CC1` [BDM_70666], 9.00; under `Cc1ccc(C2CCN(C(=O)CCC(F)(F)F)CC2)cc1` [BDM_70663], 7.59. On the same count and under the same terms, under `O=C(CCC(F)(F)F)N1CCC(c2cccc(F)c2)CC1` [BDM_70531] stands 9.10. Take `O=C(CCCC(F)(F)F)N1CCN(c2ccc(Cl)cc2)CC1` [BDM_44812]: the pEC50 in data set [1] (Table III) was more than 7.70. Turning to `O=C(CCC(F)(F)F)N1CCN(c2ccc(F)cc2)CC1` [BDM_44819], the pEC50 in data set [1] (Table III) was 7.57. The same measure, in the same setting: to `O=C(CCC(F)(F)F)N1CCC(c2cccc(C(F)(F)F)c2)CC1` [BDM_70546] belongs 9.00; to `COc1ccccc1C1CCN(C(=O)CCC(F)(F)F)CC1` [BDM_70540], 6.85.

For `O=C(CCC(F)(F)F)N1CCC(c2ccc(F)cc2)C1` (stereo not shown) [BDM_70717], the negative-log EC50 (pEC50) in data set [1] (Table I) and in data set [1] (Table III) was 8.05 throughout.

What is called solubility is the concentration that dissolves in the medium under given conditions. In the case of `O=C(CCC(F)(F)F)N1CCC(c2ccccc2)CC1` [BDM_44647], the solubility at 24 h in data set [2] amounted to 50.4 µg/mL. The negative-log EC50 (pEC50) in data set [1] (Table I) and in data set [1] (Table III) was 9.10 throughout.

Consider `O=C(CCCC(F)(F)F)N1CCC(c2ccccc2)CC1` [BDM_44648], for which the solubility at 24 h in data set [2] is 42.9 µg/mL. In addition, the pEC50 in data set [1] (Table I) and in data set [1] (Table III) was more than 8.00 in each case. For `O=C(CCCC(F)(F)F)N1CCN(c2ccc(F)cc2)CC1` [BDM_44820], the negative-log EC50 (pEC50) in data set [1] (Table III) was 6.85. Same read-out and setting: under `COc1cccc(C2CCN(C(=O)CCC(F)(F)F)CC2)c1` [BDM_70538] stands 6.85; under `O=C(CCC(F)(F)F)N1CCC(c2cccc(Cl)c2)CC1` [BDM_70668], 9.30.

`O=C(CCC(F)(F)F)N1CCC(c2ccc(O)cc2)CC1` [BDM_45572]: the negative-log EC50 (pEC50) in data set [1] (Table III) is 6.55. As to `O=C(CCC(F)(F)F)N1CCC(c2ccc(F)cc2)CC1` [BDM_44751], in data set [2], the solubility at 24 h amounted to 51.9 µg/mL. The pEC50 in data set [1] (Table I) and in data set [1] (Table III) was 9.00 in each case. In the case of `CC(C)CCC(=O)N1CCC(c2ccccc2)CC1` [BDM_44649], the pEC50 in data set [1] (Table II) and in data set [1] (Table III) was 7.22 each time. In the case of `COc1ccc(C2CCN(C(=O)CCC(F)(F)F)CC2)cc1` [BDM_70537], the pEC50 in data set [1] (Table III) is 8.70. Same read-out and setting: under `O=C(CCC(F)(F)F)N1CCC(c2ccncc2)CC1` [BDM_70542] stands 6.48; under `O=C(CCC(F)(F)F)N1CCN(c2ccccc2)CC1` [BDM_44808], 8.00; under `O=C(CCC(F)(F)F)N1CCN(c2ccc(Cl)cc2)CC1` [BDM_44811], 8.00. On the same count and under the same terms, under `O=C(CCC(F)(F)F)N1CCC(c2ccc(Cl)c(Cl)c2)CC1` [BDM_70716] stands 7.60; under `O=C(CCC(F)(F)F)N1CCC(c2ccc(Cl)cc2)CC1` [BDM_70535], 6.92; under `O=C(CCC(F)(F)F)N1CCN(c2ccc(F)cc2F)CC1` [BDM_70669], 7.68. The same measure, in the same setting: under `O=C(CCC(F)(F)F)N1CCC(c2ccccc2C(F)(F)F)CC1` [BDM_70536] stands 6.11; under `O=C(CCC(F)(F)F)N1CCC(Cc2ccccc2)CC1` [BDM_70670], 7.27. On to `CC(C)CCC(=O)N1CCN(c2ccc(F)cc2)CC1` [BDM_44821], for which the negative-log EC50 (pEC50) in data set [1] (Table II) and in data set [1] (Table III) was 7.00 each time.

Take `O=C(CCC(F)(F)F)N1CCN(Cc2ccccc2)CC1` [BDM_70719]: the pEC50 in data set [1] (Table III) is 5.96.

As for `CC(C)CCC(=O)N1CCN(c2ccc(Cl)cc2)CC1` [BDM_44813], the pEC50 in data set [1] (Table II) and in data set [1] (Table III) was 7.00 each time. `O=C(CCCC(F)(F)F)N1CCN(c2ccccc2)CC1` [BDM_44809]: the pEC50 in data set [1] (Table III) was 7.15.
